For 83 sequences, target mRNA inhibition results are on record in the OligoGym collection.

The series concerns the target HSD17B13. To be noted: ASO, HepaRG.

After the bases stand the sugars from the 5' end (letter, count) and the backbone: PS all phosphorothioate, else s phosphorothioate and o phosphodiester by linkage. Methylation of C is not given here. e = 2'-O-(2-methoxyethyl) (MOE); k = constrained ethyl (cEt); d = 2'-deoxy (DNA); m = 2'-O-methyl

With AGGGAATTTATCAAAC (sugars k3 d10 k3, PS), the target mRNA inhibition (1 µM) was 47%.

Where the note is “1 µM”, AGGGAGGTAGCTTTTG (sugars k3 d10 k3, PS) displayed a target mRNA inhibition of 46%.

AGGTAGCTAATGTATG (sugars k3 d10 k3, PS): the target mRNA inhibition (1 µM) came to 53%.

“AGGTAGCTTTTGTCCA (sugars k3 d1 m1 d8 k3, PS)” gave a target mRNA inhibition (1 µM) of 59%.

Consider AGGTTTAGCAATTTAG (sugars k3 d10 k3, PS), for which, where the note is “1 µM”, the target mRNA inhibition came to 54%.

For AGGTTTTGATACCAGT (sugars k3 d10 k3, PS), the target mRNA inhibition (1 µM) amounted to 60%.

For the setting “1 µM”, AGTAACTTTATTAACG (sugars k3 d10 k3, PS) yielded a target mRNA inhibition of 12%.

Take AGTAAGGTAAAGTCTA (sugars k3 d10 k3, PS): the target mRNA inhibition (1 µM) came out at 55%.

AGTAATAAAGTCCAGA (sugars k3 d10 k3, PS) yielded a target mRNA inhibition (1 µM) of 43%.

Sequence AGTAATCAGTTTTCCT (sugars k3 d10 k3, PS) displayed a target mRNA inhibition (1 µM) of 65%.

AGTAATTGCTATAGTA (sugars k3 d10 k3, PS) showed a target mRNA inhibition (1 µM) of 48%.

Under “1 µM”, “AGTACAGTTCCTTTTC (sugars kkdddddddddkekek, PS)” showed a target mRNA inhibition of 40%.

In turn, AGTAGTGGAGCCAGAC (sugars k3 d10 k3, PS) gave a target mRNA inhibition (1 µM) of 39%.

For the sequence AGTAGTGTAAGCTGAG (sugars k3 d10 k3, PS), the target mRNA inhibition worked out at 0% (0.02 µM); 4% (0.078 µM); 50% (0.313 µM); 88% (1 µM); 78% (1.25 µM); 92% (5 µM).

Where the note is “1 µM”, AGTATGACAACTGGAG (sugars k3 d10 k3, PS) registered a target mRNA inhibition of 15%.

Sequence AGTATGTTTATGTAAG (sugars k3 d10 k3, PS) registered a target mRNA inhibition (1 µM) of 48%.

Regarding AGTCATATTGAAAATC (sugars k3 d10 k3, PS), the target mRNA inhibition (1 µM) was 39%.

AGTCCAGAATAGAGTT (sugars k3 d10 k3, PS): the target mRNA inhibition (1 µM) is 58%.

For the setting “1 µM”, AGTCGGATTATTTTTT (sugars k3 d10 k3, PS) had a target mRNA inhibition of 42%.

With “AGTCTTAAACCTTCCC (sugars k3 d9 k3 e1, PS)”, the target mRNA inhibition (1 µM) was found to be 61%.

On to AGTCTTAAACCTTCCC (sugars k3 d10 k3, PS), for which the target mRNA inhibition was 0% (0.02 µM); 0% (0.078 µM); 21% (0.313 µM); 77% (1 µM); 65% (1.25 µM); 85% (5 µM).

With “AGTCUTAAACCTTCCC (sugars k3 d1 m1 d8 k3, PS)”, the target mRNA inhibition (1 µM) is 52%.

As for “AGTGCATCTTAAGATA (sugars kkdddddddddkekek, PS)”, the target mRNA inhibition (1 µM) was 27%.

“AGTTAGTATAGTTATC (sugars k3 d1 m1 d8 k3, PS)”: the target mRNA inhibition (1 µM) stood at 42%.

Where the note is “1 µM”, AGTTATTCTCTTGACA (sugars k3 d10 k3, PS) had a target mRNA inhibition of 48%.

In the case of AGTTCTGATGTCAGAC (sugars k3 d10 k3, PS), for the setting “1 µM”, the target mRNA inhibition worked out at 40%.

“AGTTGCACCGTTTTGG (sugars k3 d1 m1 d8 k3, PS)” showed a target mRNA inhibition (1 µM) of 38%.

“AGTTGCACCGTTTTGG (sugars k3 d9 k3 e1, PS)”: the target mRNA inhibition (1 µM) worked out at 43%.

Under “1 µM”, AGTTGCACCGTTTTGG (sugars k3 d10 k3, PS) registered a target mRNA inhibition of 55%.

“AGTTGCACCGTTTTGG (sugars kkdddddddddkekek, PS)” displayed a target mRNA inhibition (1 µM) of 41%.

Consider ATAAAAATTGGCCTCC (sugars k3 d10 k3, PS), for which the target mRNA inhibition (1 µM) turned out to be 41%.

In turn, ATAAACATAGGCTTAG (sugars k3 d10 k3, PS) displayed a target mRNA inhibition (1 µM) of 41%.

Regarding “ATAACTACAAGAGGTT (sugars k3 d1 m1 d8 k3, PS)”, the target mRNA inhibition (1 µM) turned out to be 61%.

Where the note is “1 µM”, “ATAACTACAAGAGGTT (sugars kkdddddddddkekek, PS)” registered a target mRNA inhibition of 46%.

In the case of ATAACTACATGACCTG (sugars k3 d10 k3, PS), the target mRNA inhibition (1 µM) amounted to 29%.

For the setting “1 µM”, ATAAGAAGAGAGCTCA (sugars k3 d10 k3, PS) displayed a target mRNA inhibition of 14%.

ATAAGTAGATGGTAAG (sugars k3 d10 k3, PS): the target mRNA inhibition (1 µM) was 58%.

Sequence ATAATAGCTCTATTGG (sugars k3 d10 k3, PS) yielded a target mRNA inhibition (1 µM) of 46%.

As for ATACATCAACTCCTCT (sugars k3 d10 k3, PS), the target mRNA inhibition runs as follows: (0.02 µM) 0%; (0.078 µM) 9%; (0.313 µM) 26%; (1 µM) 64%; (1.25 µM) 63%; (5 µM) 83%.

In the case of “ATACATTAGCAAGCTA (sugars k3 d9 k3 e1, PS)”, the target mRNA inhibition (1 µM) was found to be 48%.

On to “ATACATTAGCAAGCTA (sugars kkdddddddddkekek, PS)”, for which the target mRNA inhibition (1 µM) stood at 22%.

Sequence ATACTATTCTCCAACT (sugars k3 d10 k3, PS) displayed a target mRNA inhibition (1 µM) of 25%.

Consider “ATAGAGTCGGTCACCT (sugars k3 d1 m1 d8 k3, PS)”, for which the target mRNA inhibition (1 µM) came out at 50%.

Regarding “ATAGAGTCGGTCACCT (sugars k3 d9 k3 e1, PS)”, the target mRNA inhibition (1 µM) amounted to 67%.

Turning to ATAGGACATGGAGACA (sugars k3 d10 k3, PS), the target mRNA inhibition is, setting by setting: (0.02 µM) 14%; (0.078 µM) 18%; (0.313 µM) 48%; (1 µM) 82%; (1.25 µM) 74%; (5 µM) 79%.

Where the note is “1 µM”, ATAGGCAGTAAAGTGC (sugars k3 d10 k3, PS) had a target mRNA inhibition of 56%.

Turning to ATAGGGAGACCATGCT (sugars k3 d10 k3, PS), where the note is “1 µM”, the target mRNA inhibition was 64%.

Consider ATAGTAATTGCTATAG (sugars k3 d10 k3, PS), for which the target mRNA inhibition (1 µM) was found to be 36%.

On to “ATAGTCCATGCAAAAG (sugars kkdddddddddkekek, PS)”, for which the target mRNA inhibition (1 µM) was 31%.

On to ATATACAGACTAAGGG (sugars k3 d10 k3, PS), for which the target mRNA inhibition (1 µM) worked out at 24%.

Take ATATAGCCCTTTCCCC (sugars k3 d10 k3, PS): the target mRNA inhibition (1 µM) came out at 26%.

For the setting “1 µM”, ATATCAATGCCTTAGC (sugars k3 d10 k3, PS) showed a target mRNA inhibition of 32%.

Sequence ATATGTCCAGGTTGAG (sugars k3 d10 k3, PS) gave a target mRNA inhibition (1 µM) of 61%.

“ATATUCTGTGGCATGG (sugars k3 d1 m1 d8 k3, PS)”: the target mRNA inhibition (1 µM) came out at 63%.

Sequence ATCAATTTATCATACC (sugars k3 d10 k3, PS) yielded a target mRNA inhibition (1 µM) of 11%.

Turning to ATCAGACTTCTTACGA (sugars k3 d10 k3, PS), for the setting “1 µM”, the target mRNA inhibition worked out at 45%.

Regarding ATCATATGCTAAGTGC (sugars k3 d10 k3, PS), the target mRNA inhibition by setting is: (0.02 µM) 0%; (0.078 µM) 11%; (0.313 µM) 48%; (1 µM) 73%; (1.25 µM) 71%; (5 µM) 82%.

Turning to ATCCCACAGAACCAAT (sugars k3 d10 k3, PS), the target mRNA inhibition (1 µM) was 34%.

In the case of ATCCCCTAAGTTATTA (sugars k3 d10 k3, PS), the target mRNA inhibition (1 µM) is 13%.

Consider ATCCTTGGTGCTGAGA (sugars k3 d10 k3, PS), for which the target mRNA inhibition (1 µM) was found to be 13%.

Regarding ATCTAACTAACCTGAC (sugars k3 d10 k3, PS), the target mRNA inhibition (1 µM) turned out to be 0%.

In the case of ATCTATCATGCCTTCC (sugars k3 d10 k3, PS), where the note is “1 µM”, the target mRNA inhibition was found to be 6%.

With ATCTCACAAGGGAAAT (sugars k3 d10 k3, PS), the target mRNA inhibition (1 µM) was found to be 73%.

Consider ATCTCTGGGACCAAGG (sugars k3 d10 k3, PS), for which the target mRNA inhibition by setting is: (0.02 µM) 0%; (0.078 µM) 0%; (0.313 µM) 57%; (1 µM) 72%; (1.25 µM) 78%; (5 µM) 93%.

ATCTCTTAGCTGTGCA (sugars k3 d10 k3, PS) returned a target mRNA inhibition (1 µM) of 63%.

ATCTGTCTCCAATACA (sugars k3 d10 k3, PS): the target mRNA inhibition (1 µM) was found to be 55%.

On to ATCTTAAGATACCCAG (sugars k3 d10 k3, PS), for which the target mRNA inhibition (1 µM) came out at 70%.

Turning to “ATCTTAAGATACCCAG (sugars kkdddddddddkekek, PS)”, for the setting “1 µM”, the target mRNA inhibition was found to be 45%.

“ATCTUAAGATACCCAG (sugars k3 d1 m1 d8 k3, PS)”: the target mRNA inhibition (1 µM) is 55%.

For the setting “1 µM”, “ATGAAGTTAGTATAGT (sugars kkdddddddddkekek, PS)” had a target mRNA inhibition of 34%.

Where the note is “1 µM”, ATGAGTAGGCAACTGA (sugars k3 d10 k3, PS) displayed a target mRNA inhibition of 61%.

In turn, ATGATAATTTGGTGTC (sugars k3 d10 k3, PS) came in with a target mRNA inhibition (1 µM) of 55%.

With ATGCATTAAAACTCTC (sugars k3 d10 k3, PS), the target mRNA inhibition (1 µM) turned out to be 12%.

Sequence “ATGCTACTTGAACAGT (sugars kkdddddddddkekek, PS)” came in with a target mRNA inhibition (1 µM) of 54%.

In turn, “ATGCUACTTGAACAGT (sugars k3 d1 m1 d8 k3, PS)” gave a target mRNA inhibition (1 µM) of 46%.

The sequence “ATGGCTACAGATTGGA (sugars k3 d1 m1 d8 k3, PS)” came in with a target mRNA inhibition (1 µM) of 44%.

Under “1 µM”, ATGGTAAGCCCCATGC (sugars k3 d10 k3, PS) displayed a target mRNA inhibition of 22%.

In the case of ATGTAATAGCCAGTAC (sugars k3 d10 k3, PS), the target mRNA inhibition (1 µM) was 52%.

For ATGTAGTGTTTACAAG (sugars k3 d10 k3, PS), the target mRNA inhibition (1 µM) came to 58%.

“ATGTATCTTATAAGAC (sugars k3 d1 m1 d8 k3, PS)” registered a target mRNA inhibition (1 µM) of 3%.

For the setting “1 µM”, ATGTATCTTATAAGAC (sugars k3 d10 k3, PS) gave a target mRNA inhibition of 0%.

ATGTCCTAGGATGTTG (sugars k3 d10 k3, PS): the target mRNA inhibition (1 µM) was found to be 50%.

Regarding “ATGTGAAGAGCTGGTA (sugars kkdddddddddkekek, PS)”, the target mRNA inhibition (1 µM) is 54%.
